Common to all, as to assay type: in vivo
One data set deals with Lindernia pyxidari. Description: Greenhouse test in transplanted paddy rice: herbicidal damage to weed. The note with it: applied to water surface, rated 3 weeks after application vs untreated control. The source says: (§1) To produce a preparation of active compound, 1 part by weight of an active compound combination according to the invention is mixed with the stated amount of solvent and, after addition of the stated amount of the emulsifier, diluted with water to the desired concentration.
(§2) Vessels for planting (500 cm^2) are filled with soil from a rice field, and in each case 3 rice plants (cultivar: Nipponbare, 2-3-leaf stage, height: about 15 cm) are planted into the middle of vessels for planting. Into the same vessels for planting, seeds are sown. The soil in the vessels is kept moist. After two days, each vessel for planting is flooded to a water depth of 2-3 cm.
(§3) Five days after the rice plants were transplanted, the amount of active compound is, in the preparation described above, applied to the surface of the water in the vessels for planting using a pipette. The water depth in the vessels for planting is maintained at 2-3 cm.
(§4) 3 weeks after the application of active compound, the efficacy is rated in % damage in comparison to the untreated control.
(§5) Active compounds, application rates and results are shown in Table A1 below, the abbreviations used in the table having the following meanings: • (I-65) N-[2,6-dichloro-3-[2,6-dioxocyclohexyl)-carbonyl]-phenyl]pyrrolidone-1-carboxamide • (I-2) N′-[2,6-dichloro-3-[(2,6-dioxo-cyclohexyl)-carbonyl]-phenyl]-N-methoxy-N-methyl-urea • (A) fentrazamide

In data set [1] the test system is rice plants (cultivar: Nipponbare). Description: Greenhouse test in transplanted paddy rice: crop damage. Conditions: rated 3 weeks after application.
From the text: as §1, §2, §3, §4, §5

Another data set deals with ROT/N. In words: Herbicidal damage to weed ROT/N (Tables B1, B3). Conditions: application rate 50 g/ha.
The next data set concerns DOPJU. Description: Herbicidal damage to weed DOPJU (Table B2). The note with it: application rate 50 g/ha.
From the text: as §1, §2, §3, §4, §5

The text below walks through data of patent US20050090397A1, “Herbicides made from substituted aryl ketones” (priority 2001, published 2005).

For `CCN(C(=O)n1nnn(-c2ccccc2Cl)c1=O)C1CCCCC1` [(A), 4-(2-chloro-phenyl)-N-cyclohexyl-N-ethyl-4,5-dihydro-5-oxo-1H-tetrazol-1-carboxamide], in the data set on Lindernia pyxidari (application rate 150 g/ha), the “Damage to Lindernia pyxidari (%)” value is 70%. In data set [1] (application rate 150 g/ha), the “Damage to rice (%)” value stood at 0%. Moreover, the “Damage (to ROT/N) (%)” value with ROT/N (Table B1) is on record as 60%. The “Damage (to DOPJU) (%)” value in the data set on DOPJU was 50%.
Consider `CCC1(CC2(c3cccc(Cl)c3)CO2)C(=O)c2ccccc2C1=O` (stereo not shown) [B, 2-[2-(3-chloro-phenyl)-oxiranyl-methyl]-2-ethyl-1H-indene-1,3 (2H)-dione], for which the “Damage (to ROT/N) (%)” value in the data set on ROT/N (Table B3) was 2%.
Take `CON(C)C(=O)Nc1c(Cl)ccc(C(=O)C2C(=O)CCCC2=O)c1Cl` [Example I-2, N′-[2,6-dichloro-3-[(2,6-dioxo-cyclohexyl)-carbonyl]-phenyl]-N-methoxy-N-methyl-urea]: the “Damage to Lindernia pyxidari (%)” value in the data set with Lindernia pyxidari (application rate 200 g/ha) came to 60%. In addition, the “Damage to rice (%)” value in data set [1] (application rate 200 g/ha) was determined as 0%.
